Structures are written as SMILES. Some results are limits rather than exact numbers.

The values that follow come from patent US20140190225A1, “ALTERING ANIMAL WASTE COMPOSITION” (AgResearch Limited, priority 2004, published 2014).

In series [1] the test system is nitrous oxide emissions. The experiment in a line: Lysimeter study: nitrous oxide emission. An excerpt:
(§1) Undisturbed soil lysimeters (30 cm diameter×50 cm depth) were collected from a pastoral site near Lake Taupo which had been under a cutting regime with no grazing animals for over 18 months. The soil was a Taupo sandy loam (yellow brown pumice or allophanic soil). A gap (c. 1 cm) between the side of the soil cores and the PVC lysimeter housing was filled with Vaseline to stop possible edge-flow of water or urine. The lysimeters were transferred to a lysimeter facility (near Hamilton, New Zealand) where they were buried in soil so that the soil surface in the lysimeter was at ground level. However, the lysimeter casing extended about 4 cm above the soil surface to stop any lateral surface loss.
There were five replicate lysimeters with the following treatments included: a control, urine, urine+DCD, and urine+4 MP. Urine was collected from Jersey dairy cows, stored at 4° C. and applied to the lysimeters within 4 days. The urine solution was applied at 10 L/m^2 giving the equivalent of 800 kg N/ha (similar to that for a cow urine patch). For the DCD and 4 MP treatments, the inhibitor compounds were dissolved in the urine prior to application to represent urine excreted from inhibitor-administered animals. Inputs in these treatments were equivalent to 1.5 g DCD/m^2 and 0.1 g 4 MP/m^2.
Lysimeters were left to stabilise for several weeks after installation in the facility. Treatments were applied in May 2004. Pasture on the lysimeters was trimmed prior to treatment application and was regularly cut at heights and intervals similar to that under dairy cow grazing.
Nitrous oxide (N2O) emission from the main lysimeters was measured using a standard closed chamber method. Chambers were placed on the lysimeters at regular intervals during the study for periods of one hour at around midday. Gas samples were collected at 0, 30 and 60 minutes from the headspace of the chambers for N2O analysis by gas chromatography. […] Cumulative N2O emissions over the measurement period averaged 1.2 and 0.5 kg N/ha for the urine and urine+DCD treatments, giving a 57% reduction from DCD.

The nature of series [2]: Tolerability of abomasal infusion in sheep. Particulars: DCD 15 g/day, 4 MP 1 g/day, Agrotain 80 g/day. Type of series: in vivo. An excerpt: (§2) Sheep were then transferred indoors to metabolism crates.
For series [3], the system named is nitrification of urine/urea-N in soil. In words: Soil incubation with urine from abomasally infused sheep: nitrification. The settings on record: urine from sheep with abomasal infusion, DCD 15 g/day or 4 MP 1 g/day; soil incubated at 20° C. Here is the method:
(§3) This was determined by firstly measuring the urea concentration in urine samples and adjusting the urine volume (or in a few samples with low concentrations, urea was added) so that the same rate of urea-N was added to soil (100 g) in plastic bags. The soil was a Horotiu silt loam derived from volcanic ash taken from a pastoral site which had been ungrazed for over 6 months so that no residual animal urine was present.
(§4) The urine-treated soil samples were incubated at 20° C. and sub-samples were removed at regular intervals over time for analysis of ammonium and nitrate in 2M KCl extracts using standard methods. The level of inhibition of nitrification was evident from less nitrate formation (FIG. 4B; P<0.001 at all incubation times) and higher ammonium levels (FIG. 4A; P<0.001 at all incubation times). Inhibition of nitrification was higher for DCD than for 4 MP (P<0.01), with an average reduction in nitrate production relative to the control of 96 and 51%, respectively (FIG. 4C). This difference may have been influenced by the rate of inhibitor used.

Series [4] deals with nitrate leaching. The experiment in a line: Lysimeter study: nitrate leaching. The settings on record: inhibitor added to cow urine, 1.5 g DCD/m^2 or 0.1 g 4 MP/m^2; 104 days.
Description: as §1
There were five replicate lysimeters with the following treatments included: a control, urine, urine+DCD, and urine+4 MP. Urine was collected from Jersey dairy cows, stored at 4° C. and applied to the lysimeters within 4 days. The urine solution was applied at 10 L/m^2 giving the equivalent of 800 kg N/ha (similar to that for a cow urine patch). […]
Nitrate leaching from lysimeters was measured by collection of leachate draining from the base of each lysimeter. This drainage water was collected at regular intervals and analysed for nitrate concentration. […]

Series [5] is described as follows: Freezing of urine: presence and activity of inhibitors. Type of series: physicochemical. The settings on record: urine frozen at −20° C.
Description: During each infusion period the sheep were housed in metabolism crates to allow daily collection of urine and faeces samples. Single urination event samples were also collected from each sheep every day and were frozen for subsequent analysis of inhibitor content and for inhibitory activity in soil.
In series [6] the test system is nitrification inhibition in soil. The experiment in a line: Laboratory soil incubation with urine from DCD-treated cows. Here is the method: A laboratory incubation experiment was set up to confirm that the DCD contained in urine from DCD-treated cows retained its nitrification inhibition properties after application to soil. Urine from DCD-treated cows was compared to urine from non-treated cows spike with varying rates of DCD.

Series [7] can be described thus: Excretion efficiency of DCD in non-lactating dairy cows (metabolism stall study). It counts as in vivo. On the procedure: The efficiency of excretion of DCD in urine relative to DCD administered to animals was determined in a metabolism stall study involving five non-lactating dairy cows. The study was conducted on the DairyNZ Lye Farm, near Hamilton, New Zealand.
Each cow was fed a diet of pasture silage.
The five cows were administered DCD via addition to the pasture silage feed at a dosage rate was 30 g/animal/day.
Animal waste collectors were fitted to animals and configured to collect urine and dung separately. The animal waste was analysed for DCD concentration using known analysis techniques.

The nature of series [8]: Excretion efficiency of DCD in sheep. Type of series: in vivo.
Series [9] in a line: DCD in urine of sheep, ruminal infusion (HPLC). Type of series: in vivo. Here is the method:
(§5) The 12 sheep were randomly allocated to one of 2 treatments; water infusion (Control) or DCD at 15 g/day (DCD group). Experimental methodology was the same as for the abomasal infusion study in that there was a 4 day period of continuous infusion followed by an 11 day non-treatment clearance/rest period.
Presence of DCD in urine samples was determined using high-performance liquid chromotography. […] However, concentrations of DCD in urine were lower at day 1 of infusion than days 2-4, as expected because of time for rumen processing. Levels declined after ceasing infusion and were negligible within 7 days (FIG. 5).

For series [10], the system named is conversion of nitrogen containing compounds. The settings on record: cited from earlier work.
Series [11] is described as follows: DCD in urine of dairy heifers drenched daily. Type of series: in vivo. Particulars: daily drench. The source says: In addition, in a separate study, dairy heifers were drenched daily with a DCD solution.
Series [12] has as its system nitrification of urine/urea-N in soil. In words: Soil incubation with urine from ruminally infused sheep: nitrification. The settings on record: urine from sheep with ruminal infusion of DCD 15 g/day. Here is the method: as §3, §4, §5
The nature of series [13]: DCD in urine of sheep, abomasal infusion (HPLC). It counts as in vivo.
Description: as §2
Infusion of treatments continued for 4 days, after which there was an 11 day non-treatment clearance/rest period before repeating this phase. Sheep allocation to treatments changed over each period in a statistical cross-over design (defined by statisticians) so that 11 sheep had been subjected to each of 3 treatments (control, DCD and 4 MP), and so that within- and between-sheep variability could be evaluated.
Presence of DCD in urine samples was determined using high-performance liquid chromotography. […] There was some variability between sheep in DCD concentrations in urine, but this reflected differences in urination volumes (FIG. 3) so that there was much less difference in the amount of DCD excreted per urination. Concentrations of DCD in urine declined to negligible levels within 7 days after ceasing infusion (FIG. 2).

Setting [14] is: cows, 30 g/animal/day in feed, at equilibrium.

`Cc1cn[nH]c1` [4 MP, 4 methylpyrazole]: the “effect on nitrous oxide emissions” value in series [1] (inhibitor added to urine, lysimeters) is reported as “reducing”. In [2], the “effect of infusion on sheep (live-weight changes, body condition, general bodily function, feed intake)” value is “no adverse effect”. Moreover, in [3], the “average reduction in nitrate production relative to the control” value is listed as 51%. The “reduction in cumulative nitrate leaching versus urine treatment” value in [4] is reported as 71%.
As for `N#CN=C(N)N` [DCD, dicyandiamide], in series [5], the “effect of freezing urine on presence or activity” value was “no effect”. In series [1] (urine+DCD versus urine), the “reduction in cumulative N2O emissions” value was found to be 57%. Further, the “cumulative N2O emissions over the measurement period” value in series [1] (urine+DCD, 1.5 g DCD/m^2, urine alone 1.2) turned out to be 0.5 kg N/ha. In addition, the “effect of infusion on sheep (live-weight changes, body condition, general bodily function, feed intake)” value in [2] is on record as “no adverse effect”. Besides, the “average reduction in nitrate production relative to the control” value in series [3] came to 96%. For the same compound, the “DCD in urine from DCD-treated cows, measured rate equivalent” value in series [6] (FIG. 11 legend) turned out to be 51 kg DCD/ha. Moreover, the “nitrification inhibition in soil of DCD in urine from treated cows versus urine spiked with an equivalent level of DCD” value in series [6] (laboratory incubation) is “same level of nitrification inhibition”. The “efficiency of excretion in urine” value in series [7] (cattle such as beef or dairy) is on record as 80-81%. In [7] (setting [14]), the “DCD administered recovered in dung” value turned out to be 10% and the “DCD administered recovered in urine” value stood at 81%. Also, in [8], the “efficiency of transfer to urine” value was “approximately 86%”. For the same compound, in series [9] (DCD 15 g/day ruminal infusion, 4 days), the “DCD excretion in urine over the infusion period” value was “high levels of DCD were absorbed and excreted in urine in an unaltered form”. In addition, the “time for DCD in urine to become negligible after ceasing infusion” value in series [9] (ruminal infusion 15 g/day) is given as ≤ 7 days. Further, the “reduction in cumulative nitrate leaching versus urine treatment” value in series [4] is 56%. The “effectiveness at a rate of approximately 5 kg/ha” value in series [10] (DCD rate on land approximately 5 kg/ha) is recorded as “relatively ineffective”. For the same compound, in [10] (application to land, most soils, rainfall below about 1500 mm/year), the “improvement at rates in excess of 10 kg/ha compared to 10 kg/ha” value is “negligible improvements”. In addition, the “DCD concentration in urine over a 90 day treatment period” value in [11] is given as “remained relatively constant”. In addition, the “average reduction in nitrate production” value in series [12] is 81%. Moreover, the “DCD concentration in urine during the infusion period” value in [13] (DCD 15 g/day abomasal infusion, versus control, P<0.001) is “highly significant increase”. In addition, the “time for DCD in urine to decline to negligible levels after ceasing infusion” value in [13] (abomasal infusion 15 g/day) was ≤ 7 days.
